According to patent publication US12011444B2, “N-substituted indole derivatives as PGE2 receptor modulators” (Idorsia Pharmaceuticals Ltd, priority 2015, dated 2024):

Key:
[1] = molecular target: PTGER2 (EP2) (Homo sapiens (Human), UniProt P43116); assay: hEP2 b-arrestin assay (PathHunter HEK 293 PTGER2 b-arrestin cells); format: cell-based; settings: hEP2 b-arrestin assay (values without asterisk)
In short: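 Readout is β-galactosidase complementation luminescence, expressed as percent of DMSO control (duplicates). PathHunter HEK293 EP2/β-arrestin 2 cells, grown 24 h, received compound for 15 min at 37 °C before a 120 min challenge with PGE2 at 5 μM final, followed by 1 h detection at room temperature.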

[2] = molecular target: PTRGER4 (EP4) (Homo sapiens (Human), UniProt P35408); assay: hEP4 b-arrestin assay (PathHunter HEK 293 PTGER4 b-arrestin cells); format: cell-based; settings: hEP4 b-arrestin assay (values without asterisk)
PTRGER4 (EP4), sequence (P35408 whole entry, looked up, the tested form may be a part): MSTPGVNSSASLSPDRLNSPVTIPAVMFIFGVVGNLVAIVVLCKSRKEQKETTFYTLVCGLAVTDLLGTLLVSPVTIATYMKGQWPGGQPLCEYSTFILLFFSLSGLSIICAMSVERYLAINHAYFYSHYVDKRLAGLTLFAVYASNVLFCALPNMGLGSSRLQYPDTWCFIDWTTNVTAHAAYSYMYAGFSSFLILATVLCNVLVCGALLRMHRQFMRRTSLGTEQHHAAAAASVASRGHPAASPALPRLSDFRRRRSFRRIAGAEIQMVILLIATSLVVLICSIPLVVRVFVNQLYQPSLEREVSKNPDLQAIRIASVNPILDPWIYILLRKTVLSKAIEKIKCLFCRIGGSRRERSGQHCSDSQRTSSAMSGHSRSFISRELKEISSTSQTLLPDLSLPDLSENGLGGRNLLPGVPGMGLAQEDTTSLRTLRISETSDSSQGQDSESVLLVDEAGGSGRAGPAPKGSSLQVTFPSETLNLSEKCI
In short: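 Antagonist mode: compound is given 15 min at 37 °C, then 20 nM (final) PGE2 for 120 min, in HEK293 cells stably expressing EP4 fused to ProLink and β-arrestin 2 fused to EA. Recruitment read as β-gal luminescence after 1 h reagent at room temperature, as percent of DMSO control.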

PTGER2 (EP2), sequence (P43116 whole entry): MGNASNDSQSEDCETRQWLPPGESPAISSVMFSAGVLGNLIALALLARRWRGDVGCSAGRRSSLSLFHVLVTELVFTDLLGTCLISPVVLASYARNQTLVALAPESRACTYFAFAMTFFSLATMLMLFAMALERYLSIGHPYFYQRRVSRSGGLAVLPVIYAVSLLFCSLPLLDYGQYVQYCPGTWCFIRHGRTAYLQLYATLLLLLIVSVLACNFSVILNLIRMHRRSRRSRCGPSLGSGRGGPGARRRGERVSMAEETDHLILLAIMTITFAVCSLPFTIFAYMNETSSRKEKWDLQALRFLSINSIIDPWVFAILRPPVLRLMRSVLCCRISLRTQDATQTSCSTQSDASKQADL

Structure (SMILES) | IC50 [1] [nM] | IC50 [2] [nM]
CCOc1cc(-c2cc(NCCn3c(C)cc4c(OC)ccc(F)c43)ncn2)sc1CC(=O)O [Example 847, (3-Ethoxy-5-{6-[2-(7-fluoro-4-methoxy-2-methyl-indol-1-yl)-ethylamino]-pyrimidin-4-yl}-thiophen-2-yl)-acetic acid] | 35 | 309
CCOc1cc(-c2cc(NCCn3c(C)cc4c(OC)ccc(F)c43)ncn2)ccc1-c1nc(C)c(C)o1 [Example 848, {6-[4-(4,5-Dimethyl-oxazol-2-yl)-3-ethoxy-phenyl]-pyrimidin-4-yl}-[2-(7-fluoro-4-methoxy-2-methyl-indol-1-yl)-ethyl]-amine] | 20 | 321
CCOc1cc(-c2cc(NCCn3c(C)cc4c(OC)ccc(F)c43)ncn2)ccc1-c1nc2ccccc2o1 [Example 849, [6-(4-Benzooxazol-2-yl-3-ethoxy-phenyl)-pyrimidin-4-yl]-[2-(7-fluoro-4-methoxy-2-methyl-indol-1-yl)-ethyl]-amine] | 39 | 589
N#Cc1cc2c(Cl)cc(Cl)cc2n1CCNc1cc(-c2cc(F)c(C(=O)O)s2)ncn1 [Example 850, 5-{6-[2-(4,6-Dichloro-2-cyano-indol-1-yl)-ethylamino]-pyrimidin-4-yl}-3-fluoro-thiophene-2-carboxylic acid] | 2 | 79
Cc1ccc(F)c2c1cc(C#N)n2CCNc1cc(-c2cc(F)c(C(=O)O)s2)ncn1 [Example 851, 5-{6-[2-(2-Cyano-7-fluoro-4-methyl-indol-1-yl)-ethylamino]-pyrimidin-4-yl}-3-fluoro-thiophene-2-carboxylic acid] | 18 | 28
COc1ccc(F)c2c1cc(C#N)n2CCNc1cc(-c2ccc(-c3cc(O)no3)cc2)ncn1 [Example 852, 7-Fluoro-1-(2-{6-[4-(3-hydroxy-isoxazol-5-yl)-phenyl]-pyrimidin-4-ylamino}-ethyl)-4-methoxy-1H-indole-2-carbonitrile] | 12 | 22
CCOc1cc(-c2cc(NCCn3c(C#N)cc4c(OC)ccc(F)c43)ncn2)ccc1NC(=O)C(=O)O [Example 853, N-(4-{6-[2-(2-Cyano-7-fluoro-4-methoxy-indol-1-yl)-ethylamino]-pyrimidin-4-yl}-2-ethoxy-phenyl)-oxalamic acid] | 5 | 1
CCOc1cc(-c2cc(NCCn3c(C#N)cc4c(OC)ccc(F)c43)ncn2)sc1CC(=O)O [Example 854, (5-{6-[2-(2-Cyano-7-fluoro-4-methoxy-indol-1-yl)-ethylamino]-pyrimidin-4-yl}-3-ethoxy-thiophen-2-yl)-acetic acid] | 232 | 193
COc1cc(-c2cc(NCCn3c(C#N)cc4c(OC)ccc(F)c43)ncn2)ccc1-c1cc(O)no1 [Example 855, 7-Fluoro-1-(2-{6-[4-(3-hydroxy-isoxazol-5-yl)-3-methoxy-phenyl]-pyrimidin-4-ylamino}-ethyl)-4-methoxy-1H-indole-2-carbonitrile] | 6 | 3
N#Cc1cc2c(Cl)cc(Cl)cc2n1CCNc1cc(-c2cc(C(F)(F)F)c(C(=O)O)s2)ncn1 [Example 856, 5-{6-[2-(4,6-Dichloro-2-cyano-indol-1-yl)-ethylamino]-pyrimidin-4-yl}-3-trifluoromethyl-thiophene-2-carboxylic acid] | 8 | 52
Cc1c(F)c(F)cc2c1cc(C#N)n2CCNc1cc(-c2cc(C(F)(F)F)c(C(=O)O)s2)ncn1 [Example 857, 5-{6-[2-(2-Cyano-5,6-difluoro-4-methyl-indol-1-yl)-ethylamino]-pyrimidin-4-yl}-3-trifluoromethyl-thiophene-2-carboxylic acid] | 58 | 212
Cc1ccc(F)c2c1cc(C#N)n2CCNc1cc(-c2cc(C(F)(F)F)c(C(=O)O)s2)ncn1 [Example 858, 5-{6-[2-(2-Cyano-7-fluoro-4-methyl-indol-1-yl)-ethylamino]-pyrimidin-4-yl}-3-trifluoromethyl-thiophene-2-carboxylic acid] | 22 | 4
N#Cc1cc2cccc(F)c2n1CCNc1cc(-c2cc(C(F)(F)F)c(C(=O)O)s2)ncn1 [Example 859, 5-{6-[2-(2-Cyano-7-fluoro-indol-1-yl)-ethylamino]-pyrimidin-4-yl}-3-trifluoromethyl-thiophene-2-carboxylic acid] | 6 | 60
COc1ccc(F)c2c1cc(C#N)n2CCNc1cc(-c2ccc(C3(OC)COC3)s2)ncn1 [Example 860, 7-Fluoro-4-methoxy-1-(2-{6-[5-(3-methoxy-oxetan-3-yl)-thiophen-2-yl]-pyrimidin-4-ylamino}-ethyl)-1H-indole-2-carbonitrile] | 421 | 121
CCOc1cc(-c2cc(NCCn3c(C#N)cc4c(OC)ccc(F)c43)ncn2)ccc1NCC(=O)O [Example 861, (4-{6-[2-(2-Cyano-7-fluoro-4-methoxy-indol-1-yl)-ethylamino]-pyrimidin-4-yl}-2-ethoxy-phenylamino)-acetic acid] | 5 | 2
COc1ccc(F)c2c1cc(C#N)n2CCNc1cc(-c2ccc(-c3c[nH]c(C4CC4)n3)cc2)ncn1 [Example 863, 1-(2-{6-[4-(2-Cyclopropyl-1H-imidazol-4-yl)-phenyl]-pyrimidin-4-ylamino}-ethyl)-7-fluoro-4-methoxy-1H-indole-2-carbonitrile] | 5 | 3
CCOc1cc(-c2cc(NCCn3c(C)cc4c(OC)cc(Cl)c(F)c43)ncn2)sc1C(=O)O [Example 864, 5-{6-[2-(6-Chloro-7-fluoro-4-methoxy-2-methyl-indol-1-yl)-ethylamino]-pyrimidin-4-yl}-3-ethoxy-thiophene-2-carboxylic acid] | 3 | 5
CCOc1cc(-c2cc(NCCn3c(C#N)cc4c(OC)cccc43)ncn2)ccc1NCC(=O)O [Example 865, (4-{6-[2-(2-Cyano-4-methoxy-indol-1-yl)-ethylamino]-pyrimidin-4-yl}-2-ethoxy-phenylamino)-acetic acid] | 7 | 5
COc1ccc(F)c2c1cc(C#N)n2CCNc1cc(-c2ccc(O)c(OC(F)(F)F)c2)ncn1 [Example 866, 7-Fluoro-1-{2-[6-(4-hydroxy-3-trifluoromethoxy-phenyl)-pyrimidin-4-ylamino]-ethyl}-4-methoxy-1H-indole-2-carbonitrile] | 8 | 5
COc1ccc(F)c2c1cc(C#N)n2CCNc1cc(-c2ccc(O)c(Cl)c2)ncn1 [Example 867, 1-{2-[6-(3-Chloro-4-hydroxy-phenyl)-pyrimidin-4-ylamino]-ethyl}-7-fluoro-4-methoxy-1H-indole-2-carbonitrile] | 8 | 6
CCOc1cc(-c2cc(NCCn3c(C)cc4c(Cl)cc(Cl)c(F)c43)ncn2)sc1C(=O)O [Example 868, 5-{6-[2-(4,6-Dichloro-7-fluoro-2-methyl-indol-1-yl)-ethylamino]-pyrimidin-4-yl}-3-ethoxy-thiophene-2-carboxylic acid] | 1 | 7
COc1cc(Cl)cc2c1cc(C)n2CCNc1cc(-c2cc(OC(C)C)c(C(=O)O)s2)ncn1 [Example 869, 5-{6-[2-(6-Chloro-4-methoxy-2-methyl-indol-1-yl)-ethylamino]-pyrimidin-4-yl}-3-isopropoxy-thiophene-2-carboxylic acid] | 2 | 8
CCOc1cc(-c2cc(NCCn3c(C#N)cc4c(OC)cccc43)ncn2)ccc1OCC(=O)O [Example 870, (4-{6-[2-(2-Cyano-4-methoxy-indol-1-yl)-ethylamino]-pyrimidin-4-yl}-2-ethoxy-phenoxy)-acetic acid] | 8 | 12
CCOc1cc(-c2cc(NCCn3c(C)cc4c(OC)cc(Cl)cc43)ncn2)sc1C(=O)O [Example 871, 5-{6-[2-(6-Chloro-4-methoxy-2-methyl-indol-1-yl)-ethylamino]-pyrimidin-4-yl}-3-ethoxy-thiophene-2-carboxylic acid] | 2 | 16
CCCCOc1cc(-c2cc(NCCn3c(C#N)cc4c(OC)ccc(F)c43)ncn2)ccc1C(=O)O [Example 872, 2-Butoxy-4-{6-[2-(2-cyano-7-fluoro-4-methoxy-indol-1-yl)-ethylamino]-pyrimidin-4-yl}-benzoic acid] | 12 | 18
CCOc1cc(-c2cc(NCCn3c(C#N)cc4c(OC)ccc(F)c43)ncn2)ccc1CC(=O)O [Example 873, (4-{6-[2-(2-Cyano-7-fluoro-4-methoxy-indol-1-yl)-ethylamino]-pyrimidin-4-yl}-2-ethoxy-phenyl)-acetic acid] | 77 | 18
COc1ccc(F)c2c1cc(C)n2CCNc1cc(-c2ccc(O)c(OC(F)(F)F)c2)ncn1 [Example 874, 4-{6-[2-(7-Fluoro-4-methoxy-2-methyl-indol-1-yl)-ethylamino]-pyrimidin-4-yl}-2-trifluoromethoxy-phenol] | 4 | 19
CCOc1cc(-c2cc(NCCn3c(C)c(F)c4ccccc43)ncn2)sc1C(=O)O [Example 875, 3-Ethoxy-5-{6-[2-(3-fluoro-2-methyl-indol-1-yl)-ethylamino]-pyrimidin-4-yl}-thiophene-2-carboxylic acid] | 4 | 26
CCOc1cc(-c2cc(NCCn3c(C#N)c(F)c4ccccc43)ncn2)sc1C(=O)O [Example 876, 5-{6-[2-(2-Cyano-3-fluoro-indol-1-yl)-ethylamino]-pyrimidin-4-yl}-3-ethoxy-thiophene-2-carboxylic acid] | 4 | 32
